According to article PMC8356643 (2019):

Assays:
[1] = tested on: THM (DNA, G4) GGGTTGGGTTGGGTTGGG; assay: UV-vis titration; details: 5 mM K+, 95 mM Li+; 10 mM lithium cacodylate 7.2, 95 mM LiCl, 5 mM KCl
[2] = tested on: cMyc (DNA, G4) TGAGGGTGGGTAGGGTGGGTAA; assay: fluorescence titration; details: 100 mM K+; 6 mM Na2HPO4, 2 mM NaH2PO4 7.1, 1 mM Na2EDTA, 100 mM KCl
[3] = tested on: G4TERT (DNA, G4) AGGGGAGGGGCTGGGAGGGC; assay: UV-vis titration; details: 5 mM K+, 95 mM Li+; 10 mM lithium cacodylate 7.2, 95 mM LiCl, 5 mM KCl; parallel dimer
[4] = tested on: VEGF (DNA, G4) GGGAGGGTTGGGGTGGG; assay: UV-vis titration; details: 5 mM K+, 95 mM Li+; 10 mM lithium cacodylate 7.2, 95 mM LiCl, 5 mM KCl; parallel dimer
[5] = tested on: THM (DNA, G4) GGGTTGGGTTGGGTTGGG; assay: CD melting; details: 5 mM K+; 2 eq NMM
[6] = tested on: cMyc (DNA, G4) TGAGGGTGGGTAGGGTGGGTAA; assay: UV-vis titration; details: 100 mM K+; 6 mM Na2HPO4, 2 mM NaH2PO4 7.1, 1 mM Na2EDTA, 100 mM KCl
[7] = tested on: THM (DNA, G4) GGGTTGGGTTGGGTTGGG; assay: ITC; details: 5 mM K+, 95 mM Li+; 10 mM lithium cacodylate 7.2, 95 mM LiCl, 5 mM KCl
[8] = tested on: THM (DNA, G4) GGGTTGGGTTGGGTTGGG; assay: fluorescence titration; details: 5 mM K+, 95 mM Li+; 10 mM lithium cacodylate 7.2, 95 mM LiCl, 5 mM KCl
[9] = tested on: THM (DNA, G4) GGGTTGGGTTGGGTTGGG; assay: X-ray crystallography; details: K+; 2.4 Å; end-stacking to the 3' G-tetrad

Compound: CCc1c(C)c2cc3nc(cc4nc(cc5c(CC)c(C)c(cc1[nH]2)n5C)C(C)=C4CCC(=O)O)C(CCC(=O)O)=C3C
- Ka [1]: 30 ± 20 × 10^6 M^-1
- Ka [2]: 7.4 ± 2 × 10^6 M^-1
- Ka [3]: 1.7 ± 0.7 × 10^6 M^-1
- Ka [4]: 10. ± 2 × 10^6 M^-1
- ΔT [5]: 23 ± 2 °C
- Ka [6]: 19 ± 6 × 10^6 M^-1
- Ka [7]: 70 ± 20 × 10^6 M^-1
- Ka [8]: 50 ± 20 × 10^6 M^-1
- binding [9]: yes
